Test results taken from the RepoRT retention time repository (doi:10.1016/j.chroma.2015.03.063).

Test: Agilent ZORBAX Eclipse Plus C18, 100 × 2.1 mm, 1.8 µm, 25 °C, 0.3 mL/min, estimated dead time 0.73 min; A: water + 0.1% acetic acid; B: methanol; gradient (min/%B) 0/5 6/20 13/35 18/50 24/65 30/90 40/90
Conditions: stereoisomer not certain

LC retention time [min] | Compound
22.7 | CCCCC=CC=CC=O
1.88 | NCCCCC(N)C(=O)O (stereo not drawn)
2.73 | Nc1ncnc2nc[nH]c12
4.67 | CCC(C)C(N)C(=O)O (stereo not drawn)
2.4 | OCC1OC(OC2(CO)OC(CO)C(O)C2O)C(O)C(O)C1O (stereo not drawn)
3.21 | CSCCC(N)C(=O)O (stereo not drawn)
30.1 | C=C1CCCC2(C)CC3(O)OC(=O)C(C)=C3CC12 (stereo not drawn)
32.2 | CC(C)(O)C1CCC(C)(C2C(O)CC3(C)C4CC(OC5OC(CO)C(O)C(O)C5O)C5C(C)(C)C(OC6OCC(O)C(O)C6O)CCC56CC46CCC23C)O1 (stereo not drawn)
4.31 | NC(Cc1ccc(O)cc1)C(=O)O (stereo not drawn)
2.11 | NC(=O)CC(N)C(=O)O (stereo not drawn)
11.5 | COc1cc(C=CC(=O)O)ccc1O
7.09 | O=Cc1ccc(CO)o1
2.05 | NC(N)=NCCCC(N)C(=O)O (stereo not drawn)
